Laboratory results taken from patent US9656962B2, “Ring-contracted morphinans and the use thereof” (Purdue Pharma L.P., priority 2013, dated 2017).

Key:
[1] = molecular target: recombinant human kappa opioid receptor (κ) (Homo sapiens (Human), UniProt P41145); assay: κ-opioid receptor radioligand binding assay ([3H]-U69,593); conditions: binding affinity
Protocol: κ-Opioid Receptor Binding Assay Procedures: Membranes from HEK-293 cells, CHO cells or U-2 OS cells expressing the recombinant human kappa opioid receptor (κ) were prepared by lysing cells in ice cold hypotonic buffer (2.5 mM MgCl2, 50 mM HEPES, pH 7.4) (10 mL/10 cm dish) followed by homogenization with a tissue grinder/Teflon pestle. Membranes from a cell line naturally expressing kappa opioid receptor can also be used. Membranes were collected by centrifugation at 30,000×g for 15 min at 4° C. and pellets were resuspended in hypotonic buffer to a final concentration of 1-3 mg/mL. Protein concentrations were determined using the BioRad protein assay reagent with bovine serum albumen as standard. Aliquots of κ receptor membranes were stored at −80° C.
Radioligand dose displacement assays used 0.4 nM [^3H]-U69,593 (GE Healthcare, Piscataway, N.J.; 40 Ci/mmole) with 15 μg membrane protein (recombinant opioid receptor expressed in HEK 293 cells; in-house prep) in a final volume of 200 μl binding buffer (5% DMSO, 50 mM Trizma base, pH 7.4). Non-specific binding was determined in the presence of 10 μM unlabeled naloxone or U69,593. All reactions were performed in 96-well polypropylene plates for 1 hour at a temperature of about 25° C. Binding reactions were terminated by rapid filtration onto 96-well Unifilter GF/C filter plates (Perkin Elmer, Shelton, Conn.) presoaked in 0.5% polyethylenimine (Sigma). Harvesting was performed using a 96-well tissue harvester (Perkin Elmer, Shelton, Conn.) followed by five filtration washes with 200 μl ice-cold binding buffer. Filter plates were subsequently dried at 50° C. for 1-2 hours. Fifty μl/well scintillation cocktail (Perkin Elmer, Shelton, Conn.) was added and plates were counted in a Packard Top-Count for 1 min/well.

[2] = molecular target: T1, μ-opioid receptor (Homo sapiens (Human), UniProt P35372); assay: μ-opioid receptor [35S]GTPγS functional assay, HEK-293 or CHO cells (Table 4); assay type: biochemical; conditions: for Emax: relative to DAMGO; for EC50: μ GTP
Protocol: μ-Opioid Receptor Functional Assay Procedures: [^35S]GTPγS functional assays were conducted using freshly thawed μ-receptor membranes prepared in-house from a cell line expressing recombinant μ opioid receptor in a HEK-293, CHO or U-2 OS cell background, or purchased from a commercial source (Perkin Elmer, Shelton, Conn.; or DiscovRx, Fremont, Calif.). Assay reactions were prepared by sequentially adding the following reagents to binding buffer (100 mM NaCl, 10 mM MgCl2, 20 mM HEPES, pH 7.4) on ice (final concentrations indicated): membrane protein (0.026 mg/mL), saponin ([…]), GDP ([…]) and [^35S]GTPγS (0.20 nM; Perkin Elmer, Shelton, Conn.). The prepared membrane solution (190 μl/well) was transferred to 96-shallow well polypropylene plates containing 10 μl of 20× concentrated stock solutions of the agonist [D-Ala^2, N-methyl-Phe^4 Gly-ol^5]-enkephalin (DAMGO) prepared in dimethyl sulfoxide (DMSO). Plates were incubated for 30 min at about 25° C. with shaking Reactions were terminated by rapid filtration onto 96-well Unifilter GF/B filter plates (Perkin Elmer, Shelton, Conn.) using a 96-well tissue harvester (Perkin Elmer, Shelton, Conn.) followed by three filtration washes with 200 μl of ice-cold wash buffer (10 mM NaH2PO4, 10 mM Na2HPO4, pH 7.4). Filter plates were subsequently dried at 50° C. for 2-3 hours. BetaScint scintillation cocktail (Perkin Elmer, Shelton, Conn.) was added (50 μl/well) and plates were counted using a Packard Top-Count for 1 min/well. Data were analyzed using the sigmoidal dose-response curve fitting functions in GraphPad PRISM v. 3.0, or an in-house function for non-linear, sigmoidal dose-response curve-fitting. [^35S]GTPγS functional assays can also be conducted using freshly thawed μ-receptor membranes prepared from a cell line expressing recombinant μ opioid receptor in a CHO-K1 cell background.
μ GTP Emax (%) is the maximal effect elicited by a compound relative to the effect elicited by DAMGO, a standard μ agonist.
(§1) In TABLE 4, activity response of certain Compounds of the Invention to the μ- and κ-opioid receptors was determined as described above for functional assays using HEK-293 or CHO cells.

[3] = molecular target: T2, κ-opioid receptor (Homo sapiens (Human), UniProt P41145); assay: κ-opioid receptor [35S]GTPγS functional assay, HEK-293 or CHO cells (Table 4); assay type: biochemical; conditions: for Emax: relative to U69,593; for EC50: κ GTP
Protocol: κ-Opioid Receptor Functional Assay Procedures: Functional [^35S]GTPγS binding assays were conducted as follows. κ opioid receptor membrane solution was prepared by sequentially adding final concentrations of 0.026 μg/μl κ membrane protein (in-house), 10 μg/mL saponin, 3 μM GDP and 0.20 nM [^35S]GTPγS to binding buffer (100 mM NaCl, 10 mM MgCl2, 20 mM HEPES, pH 7.4) on ice. The prepared membrane solution (190 μl/well) was transferred to 96-shallow well polypropylene plates containing 10 μl of 20× concentrated stock solutions of agonist prepared in DMSO. Plates were incubated for 30 min at a temperature of about 25° C. with shaking. Reactions were terminated by rapid filtration onto 96-well Unifilter GF/B filter plates (Perkin Elmer, Shelton, Conn.) using a 96-well tissue harvester (Packard) and followed by three filtration washes with 200 μl ice-cold binding buffer (10 mM NaH2PO4, 10 mM Na2HPO4, pH 7.4). Filter plates were subsequently dried at 50° C. for 2-3 hours. Fifty μl/well scintillation cocktail (Perkin Elmer, Shelton, Conn.) was added and plates were counted in a Packard Top-Count for 1 min/well.
κ GTP Emax (%) is the maximal effect elicited by a compound relative to the effect elicited by U69,593.
as §1

[4] = molecular target: T2, κ-opioid receptor; assay: κ-opioid receptor [35S]GTPγS functional assay, U-2 OS cells (Table 5); assay type: biochemical; conditions: for Emax: relative to U69,593; for EC50: κ GTP
Procedure, shortened: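 [35S]GTPγS binding in κ receptor membranes (0.026 μg/μl protein) with 10 μg/mL saponin, 3 μM GDP and 0.20 nM [35S]GTPγS in pH 7.4 HEPES/NaCl/MgCl2 buffer. Agonist incubation lasted 30 min at about 25 °C, followed by filtration and scintillation counting. Emax is expressed relative to U69,593.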

[5] = molecular target: T1, μ-opioid receptor; assay: μ-opioid receptor [35S]GTPγS functional assay, U-2 OS cells (Table 5); assay type: biochemical; conditions: for Emax: relative to DAMGO; for EC50: μ GTP
Procedure, shortened: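 Membranes (0.026 mg/mL) from cells expressing recombinant human μ-opioid receptor in a U-2 OS background were incubated with 0.20 nM [35S]GTPγS, 3 mM GDP and saponin in 20 mM HEPES pH 7.4, 100 mM NaCl, 10 mM MgCl2 for 30 min at about 25 °C. Filter-bound radioactivity counted; sigmoidal dose-response fits gave values, Emax relative to DAMGO.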

O=C(NCCN1CCOCC1)[C@H]1C[C@]23CCN(CC4CC4)[C@H](Cc4ccc(O)cc42)[C@]3(O)C1 [Compound 93, (2S,3aS,4R,9bS)-12-(cyclopropylmethyl)-3a,8-dihydroxy-N-(2-morpholinoethyl)-1,2,3,3a,4,5-hexahydro-4,9b-(epimino-ethano)cyclopenta[a]naphthalene-2-carboxamide]
Ki [1]: 0.64 ± 0.071 nM
Emax [2]: 28.8 ± 4.91%
EC50 [2]: 0.00395 ± 0.00065 µM
Emax [3]: 81.5 ± 1.27%
EC50 [3]: 1.52 ± 0.17 nM

CC(C)CNC(=O)[C@H]1C[C@]23CCN(CC4CC4)[C@H](Cc4ccc(O)cc42)[C@]3(O)C1 [Compound 36, (2S,3aS,4R,9bS)-12-(cyclopropylmethyl)-3a,8-dihydroxy-N-isobutyl-1,2,3,3a,4,5-hexahydro-4,9b-(epiminoethano)-cyclopenta[a]naphthalene-2-carboxamide]
Emax [2]: 1%
EC50 ([2]; bound given in μM): > 20 µM
Emax [4]: 108 ± 4.1%
EC50 [4]: 0.27 ± 0.019 nM
Emax [3]: 94.7 ± 3.71%
EC50 [3]: 2.24 ± 0.46 nM
Emax [5]: 47.7 ± 3.18%
EC50 [5]: 1.96 ± 0.27 nM

O=C(NCc1ccc(Cl)c(Cl)c1)[C@H]1C[C@]23CCN(CC4CC4)[C@H](Cc4ccc(O)cc42)[C@]3(O)C1 [Compound 47, (2S,3aS,4R,9bS)-12-(cyclopropylmethyl)-N-(3,4-dichlorobenzyl)-3a,8-dihydroxy-1,2,3,3a,4,5-hexahydro-4,9b-(epimino-ethano)cyclopenta[a]naphthalene-2-carboxamide]
Emax [2]: 86 ± 3.46%
EC50 [2]: 0.00276 ± 8.2e-05 µM
Emax [4]: 95 ± 5.29%
EC50 [4]: 0.015 nM
Emax [3]: 88.8 ± 10%
EC50 [3]: 0.03 ± 0.01 nM
Emax [5]: 98.8 ± 1.49%
EC50 [5]: 0.05 ± 0.01 nM

Cc1ccc(CNC(=O)[C@@H]2C[C@]34CCN(CC5CC5)[C@H](Cc5ccc(O)cc53)[C@]4(O)C2)cc1 [Compound 37, (2R,3aS,4R,9bS)-12-(cyclopropylmethyl)-3a,8-dihydroxy-N-(4-methylbenzyl)-1,2,3,3a,4,5-hexahydro-4,9b-(epimino-ethano)cyclopenta[a]naphthalene-2-carboxamide]
Emax [2]: 1%
EC50 ([2]; bound given in μM): > 20 µM
Emax [4]: 105.3 ± 0.88%
EC50 [4]: 0.97 ± 0.11 nM
Emax [3]: 32.5 ± 2.1%
EC50 [3]: 1.74 ± 0.39 nM
Emax [5]: 30.7 ± 2.67%
EC50 [5]: 8.48 ± 2.28 nM

N[C@@H]1CC23CCN(CC4CC4)[C@H](Cc4ccc(O)cc42)[C@]3(O)C1 (stereo in doubt) [Compound 22, (2R,3aS,4R,9bS)-2-amino-12-(cyclopropylmethyl)-1,2,3,3a,4,5-hexahydro-4,9b-(epiminoethano)-cyclopenta[a]naphthalene-3a,8-diol]
Emax [2]: 1%
EC50 ([2]; bound given in μM): > 20 µM
Emax [4]: 101 ± 1.76%
EC50 [4]: 25.4 ± 2.09 nM
Emax [3]: 77 ± 1%
EC50 [3]: 25.7 ± 4.99 nM
Emax [5]: 20.7 ± 2.4%
EC50 [5]: 111 ± 14.1 nM

NC(=O)[C@H]1C[C@]23CCN(CC4CC4)[C@H](Cc4ccc(O)cc42)[C@]3(O)C1 [Compound 30, (2S,3aS,4R,9bS)-12-(cyclopropylmethyl)-3a,8-dihydroxy-1,2,3,3a,4,5-hexahydro-4,9b-(epiminoethano)cyclopenta-[a]naphthalene-2-carboxamide]
Emax [2]: 1%
EC50 ([2]; bound given in μM): > 20 µM
Emax [4]: 100 ± 1.2%
EC50 [4]: 1.26 ± 0.05 nM
Emax [3]: 50.7 ± 0.33%
EC50 [3]: 2.49 ± 0.09 nM
Emax [5]: 32 ± 1.15%
EC50 [5]: 1.62 ± 0.41 nM

O=C(NCc1ccccc1)[C@H]1C[C@]23CCN(CC4CC4)[C@H](Cc4ccc(O)cc42)[C@]3(O)C1 [Compound 34, (2S,3aS,4R,9bS)-N-benzyl-12-(cyclopropylmethyl)-3a,8-dihydroxy-1,2,3,3a,4,5-hexahydro-4,9b-(epiminoethano)cyclopenta[a]naphthalene-2-carboxamide]
Ki [1]: 0.083 ± 0.014 nM
Emax [2]: 40 ± 1.53%
EC50 [2]: 0.00375 ± 0.00066 µM
Emax [4]: 93.3 ± 3.18%
EC50 [4]: 0.02 nM
Emax [3]: 102 ± 2.73%
EC50 [3]: 0.094 ± 0.011 nM
Emax [5]: 94 ± 0.58%
EC50 [5]: 0.25 ± 0.027 nM

O=C(NCc1ccc(O)cc1O)[C@@H]1C[C@]23CCN(CC4CC4)[C@H](Cc4ccc(O)cc42)[C@]3(O)C1 [Compound 41, (2R,3aS,4R,9bS)-12-(cyclopropylmethyl)-N-(2,4-dihydroxybenzyl)-3a,8-dihydroxy-1,2,3,3a,4,5-hexahydro-4,9b-(epimino-ethano)cyclopenta[a]naphthalene-2-carboxamide]
Emax [2]: 1%
EC50 ([2]; bound given in μM): > 20 µM
Emax [4]: 86.7 ± 6.74%
EC50 [4]: 1.02 ± 0.08 nM
Emax [3]: 35.8 ± 3.07%
EC50 [3]: 1.74 ± 0.47 nM
Emax [5]: 25.3 ± 1.33%
EC50 [5]: 4.19 ± 1.02 nM

O=C(NCc1ccc(Cl)c(Cl)c1)[C@@H]1C[C@]23CCN(CC4CC4)[C@H](Cc4ccc(O)cc42)[C@]3(O)C1 [Compound 46, (2R,3aS,4R,9bS)-12-(cyclopropylmethyl)-N-(3,4-dichlorobenzyl)-3a,8-dihydroxy-1,2,3,3a,4,5-hexahydro-4,9b-(epimino-ethano)cyclopenta[a]naphthalene-2-carboxamide]
Emax [2]: 0%
EC50 ([2]; bound given in μM): > 20 µM
Emax [4]: 106 ± 4.26%
EC50 [4]: 0.11 ± 0.01 nM
Emax [3]: 32 ± 5%
EC50 [3]: 0.2 ± 0.072 nM
Emax [5]: 38 ± 1.73%
EC50 [5]: 0.91 ± 0.05 nM
